Where only a bound is given, the exact number is not on record here.

T1 sequence (P04629 33-796): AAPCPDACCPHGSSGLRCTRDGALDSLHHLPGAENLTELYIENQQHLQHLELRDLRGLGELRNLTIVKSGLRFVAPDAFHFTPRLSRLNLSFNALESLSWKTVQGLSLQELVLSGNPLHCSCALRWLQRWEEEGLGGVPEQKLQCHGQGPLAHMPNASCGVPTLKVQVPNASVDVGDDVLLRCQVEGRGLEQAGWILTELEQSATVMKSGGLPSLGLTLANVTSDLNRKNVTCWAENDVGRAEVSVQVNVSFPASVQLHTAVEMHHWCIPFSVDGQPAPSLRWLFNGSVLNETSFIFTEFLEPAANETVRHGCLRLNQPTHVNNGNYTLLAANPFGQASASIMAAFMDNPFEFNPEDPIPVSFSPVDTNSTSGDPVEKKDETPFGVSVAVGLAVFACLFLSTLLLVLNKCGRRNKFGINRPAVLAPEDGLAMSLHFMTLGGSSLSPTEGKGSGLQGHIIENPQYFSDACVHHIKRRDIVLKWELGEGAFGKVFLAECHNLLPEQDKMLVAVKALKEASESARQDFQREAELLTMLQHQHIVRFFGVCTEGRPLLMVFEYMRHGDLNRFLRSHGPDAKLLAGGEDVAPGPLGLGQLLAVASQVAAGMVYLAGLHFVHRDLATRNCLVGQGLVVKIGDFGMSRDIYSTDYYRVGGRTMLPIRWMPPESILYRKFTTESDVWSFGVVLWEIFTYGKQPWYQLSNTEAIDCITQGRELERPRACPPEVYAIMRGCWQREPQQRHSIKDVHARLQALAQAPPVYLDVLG

The first assay addresses T1, human TrkA (Homo sapiens, UniProt P04629).
T1 construct: purchased Lifetechnologies PV3144
The experiment in a line: Test Example 2: Human TrkA Inhibition Assay. The class given is biochemical. The settings on record: human TrkA inhibition, Test Example 2; class symbols A/B/C; read-out: IC50_nM. Put shortly:
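Mobility-shift kinase assay: 90 min reaction at room temperature, stopped with EDTA buffer; phosphorylated and non-phosphorylated fluorescent substrate measured, conversion ratio calculated. Inhibition % normalised between DMSO-only wells and no-TrkA wells.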
Consider `Cc1c(-c2cnn(C)c2)nn(-c2ccccc2)c1NC(=O)N[C@@H]1CN(CC2CC2)C[C@H]1c1ccc(F)c(F)c1` [Compound I-66], for which the IC50 lay in the range of 100 to 1000 nM.

Regarding `COCCC1C[C@H](NC(=O)Nc2c(C)c(-c3cnn(C)c3)nn2-c2ccccc2)[C@@H](c2ccccc2)C1` (stereo partly drawn) [Compound I-123], the IC50 was 100 to 1000 nM.

On to `Cc1c(-c2cnn(C)c2)nn(-c2ccccc2)c1NC(=O)N[C@@H]1CN(CO)C[C@H]1c1ccc(F)c(F)c1` (racemic) [Compound I-67], for which the IC50 was > 1000 nM.

As for `COCCN1C[C@@H](NC(=O)Nc2c(C)c(OCC(C)(C)O)nn2-c2ccccc2)[C@H](C2CCC(F)(F)CC2)C1` (racemic) [Compound I-34], the IC50 is > 1000 nM.

Regarding `COCCCN1[C@@H]2CC[C@H]1[C@@H](c1ccc(F)c(F)c1)[C@@H]2NC(=O)Nc1c(C)c(-c2cnn(C)c2)nn1-c1ccccc1` (racemic) [Compound I-70], the IC50 is > 1000 nM.

Regarding `COCCN1C[C@@H](NC(=O)Nc2c(C)c(-c3cnn(C)c3)nn2-c2ccccc2)[C@H](c2cccc(-c3ccc(C#N)s3)c2)C1` (racemic) [Compound I-53], the IC50 is > 1000 nM.

On to `COCC(C[n+]1ccccc1)N1C[C@@H](NC(=O)Nc2c(C)c(-c3cnn(C)c3)nn2-c2ccccc2)[C@H](c2ccc(F)c(F)c2)C1` (stereo partly drawn) [Compound I-110], for which the IC50 is < 100 nM.

For `COCC(C(N)=O)N1C[C@@H](NC(=O)Nc2c(C)c(-c3cnn(C)c3)nn2-c2ccccc2)[C@H](c2ccc(F)c(F)c2)C1` (stereo partly drawn) [Compound I-116], the IC50 lay in the range of 100 to 1000 nM.

The next assay deals with T1, human TrkA. The assay can be described thus: Test Example 2-2: Human TrkA Inhibition Assay. The class given is biochemical. The settings on record: class symbols, read-out: IC50_nM. Here is the method: Seven point five μL per well of human TrkA (PV3144, Lifetechnologies, final concentration: 1 nmol/L) suspended in the assay buffer (100 mmol/L 4-(2-hydroxyethyl)-1-piperazineethanesulfonic acid (HEPES), 10 mmol/L magnesium chloride, 0.003 vol % Brij-35, 0.004 vol % Tween20 and 1 mmol/L dithiothreitol (DTT)) was applied in a 384 well plate and the plate was pre-incubated for 15 min at room temperature with 0.4 μL of each compound (final concentration: […]) dissolved in DMSO. Then, fluorescent substrate (FL-peptide 27, 760424, PerkinElmer, final concentration: 1.5 μmol/L) and ATP (final concentration […]) dissolved in the assay buffer was added in each well. After the incubation of 120 min at 37° C., fifteen μL of termination buffer (100 mmol/L HEPES, 40 mmol/L ethylenediaminetetraacetic acid (EDTA), 10 mmol/L magnesium chloride, 0.003 vol % Brij-35, 0.004 vol % Tween20, 1 mmol/L DTT and 0.16 vol % Coating Reagent 3) was added in each well to stop the enzyme reaction. Fluorescent intensities (FI) of phosphorylated and non-phosphorylated fluorescent substrates were measured by LabChip EZReader II (Caliper LifeSciences, Inc.), and conversion ratio (CR) was calculated by the following formula-1. The CR in the well applied with DMSO alone was used as a negative control and the CR in the well without applying TrkA was used as a positive control. The inhibitory effect of each compound on TrkA phosphorylation was calculated by the following formula-2. CR (%)=(FI of phosphorylated substrate/(FI of phosphorylated substrate+FI of non-phosphorylated substrate))×100 (Formula-1) Phosphorylation inhibition (%)=(1−(CR with compound treatment−CR of positive control)/(CR of negative control−CR of positive control))×100 (Formula-2) Inhibitory effect on TrkA phosphorylation (%)=(1−(CR in compound treated well−CR in positive control)/(CR in negative control−CR in positive control))×100.
The 50/o inhibitory concentration (IC50) was determined by the logistic regression using the inhibition data in 10 points at a range of 2 μmol/L to 0.1 nmol/L or 200 μmol/L to 10 nmol/L).
With `COCC[C@@H]1C[C@@H](NC(=O)Nc2c(C)c(C3=CCN(C(=O)OC)CC3)nn2-c2ccccc2)[C@H](c2ccccc2)C1` [Compound I-268], the IC50 was < 100 nM.

Turning to `COCC[C@@H]1C[C@@H](NC(=O)Nc2c(C)c(-c3cnn(C)c3)nn2-c2ccccc2)[C@](O)(c2ccccc2)C1` [Compound I-273], the IC50 is > 1000 nM.

Still in this assay, the particulars now being: human TrkA 1 nmol/L, 120 min at 37° C., read-out: TrkA inhibition IC50.
Regarding `COCC[C@@H]1C[C@@H](NC(=O)Nc2c(C)c(C3=CCN(C(C)=O)CC3)nn2-c2ccccc2)[C@H](c2ccccc2)C1` [Compound I-270], the IC50 stood at 0.67 nM.

With `Cc1c(-c2cnn(C)c2)nn(-c2ccccc2)c1NC(=O)N[C@@H]1CN(Cc2ccc(Br)o2)C[C@H]1c1ccc(F)c(F)c1` [Compound I-190], the IC50 was 1.3 nM.

For the compound `COCC(CO)[C@@H]1C[C@@H](NC(=O)Nc2c(C)c(-c3cnn(C)c3)nn2-c2ccccc2)[C@H](c2ccccc2)C1` (stereo partly drawn) [Compound I-239], the IC50 came out at 76 nM.

On to `Cc1c(-c2cnn(C)c2)nn(-c2ccccc2)c1NC(=O)N[C@@H]1CN(Cc2ccc(Cl)o2)C[C@H]1c1ccc(F)c(F)c1` [Compound I-202], for which the IC50 came out at 0.71 nM.

The assay is the same for the next values; noted with them: human TrkA inhibition, class symbols A/B/C, read-out: IC50_nM.
As to `CCOc1nn(-c2ccccc2)c(NC(=O)N[C@@H]2CC(CCOC)C[C@H]2c2ccccc2)c1C` (stereo partly drawn) [Compound I-212], the IC50 is < 100 nM.

With `Cc1c(-c2cnn(C)c2)nn(-c2ccccc2)c1NC(=O)N[C@@H]1CC(C)C[C@H]1c1ccc(F)c(F)c1` (stereo partly drawn) [Compound I-163], the IC50 lay within 100 to 1000 nM.

For the compound `COCC[C@H]1C[C@@H](NC(=O)Nc2c(C)c(-c3cnn(C)c3)nn2-c2ccccc2)[C@H](c2ccccc2)N1C` [Compound I-246], the IC50 was < 100 nM.

On to `COCC[C@@H]1C[C@@H](NC(=O)Nc2c(C)c(-c3cnn(C)c3)nn2-c2ccccc2)[C@H](c2ccccc2)[C@H]1C(F)F` [Compound I-253], for which the IC50 is < 100 nM.

Regarding `C=C[C@@H]1C[C@@H](NC(=O)Nc2c(C)c(-c3cnn(C)c3)nn2-c2ccccc2)[C@H](c2ccc(F)c(F)c2)N1` [Compound I-224], the IC50 was in the range of 100 to 1000 nM.

Take `COCC(C(=O)OC)[C@@H]1C[C@@H](NC(=O)Nc2c(C)c(-c3cnn(C)c3)nn2-c2ccccc2)[C@H](c2ccccc2)C1` (mixture of isomers) [Compound I-244]: the IC50 fell in the range of 100 to 1000 nM.

Consider `CCNC(=O)c1ccc(-c2nn(-c3ccccc3)c(NC(=O)N[C@@H]3C[C@@H](CCOC)C[C@H]3c3ccccc3)c2C)cc1` [Compound I-264], for which the IC50 is < 100 nM.

In the case of `COCC(O)[C@H]1C[C@@H](NC(=O)Nc2c(C)c(-c3cnn(C)c3)nn2-c2ccccc2)[C@H](c2ccc(F)c(F)c2)N1C` (stereo partly drawn) [Compound I-229], the IC50 is < 100 nM.

Take `COCCC1C[C@@H](NC(=O)Nc2c(C)c(-c3cnn(C)c3)nn2-c2ccccc2)[C@H](c2ccc(F)c(F)c2)N1CC(=O)OC` (stereo partly drawn) [Compound I-198]: the IC50 was > 1000 nM.

`COCCC1C[C@@H](NC(=O)Nc2cc(-c3ccc(C(=O)OC)cc3)nn2C)[C@H](c2ccccc2)C1` (relative stereo) [Compound I-181]: the IC50 was > 1000 nM.

Turning to `COCCC1C[C@@H](NC(=O)Nc2cc(-c3ccc(C)nc3)nn2C)[C@H](c2ccccc2)C1` (stereo partly drawn) [Compound I-220], the IC50 lay in the range of 100 to 1000 nM.

For the compound `COCC[C@@H]1C[C@@H](NC(=O)Nc2c(C)c(-c3ccc(C(=O)OC(C)(C)C)cc3)nn2-c2ccccc2)[C@H](c2ccc(F)c(F)c2)N1C` [Compound I-236], the IC50 is < 100 nM.

Turning to `COCCC1C[C@@H](NC(=O)Nc2cc(C(F)(F)F)cnc2-c2ccccc2)[C@H](c2ccccc2)C1` (relative stereo) [Compound I-201], the IC50 is < 100 nM.

Regarding `COCC[C@@H]1C[C@@H](NC(=O)Nc2c(C)c(C3=CCNCC3)nn2-c2ccccc2)[C@H](c2ccc(F)c(F)c2)N1C` [Compound I-258], the IC50 is < 100 nM.

Consider `COC(=O)C(c1ccco1)N1C[C@@H](NC(=O)Nc2c(C)c(-c3cnn(C)c3)nn2-c2ccccc2)[C@H](c2ccc(F)c(F)c2)C1` (stereo partly drawn) [Compound I-177], for which the IC50 fell in the range of 100 to 1000 nM.

Take `COCC[C@@H]1C[C@@H](NC(=O)Nc2c(C)c(C3=CCNCC3)nn2-c2ccccc2)[C@H](c2ccc(F)c(F)c2)N1` [Compound I-247]: the IC50 was < 100 nM.

Turning to `COCCC1C[C@@H](NC(=O)Nc2cc(-c3cnc(C)nc3)nn2C)[C@H](c2ccccc2)C1` (stereo partly drawn) [Compound I-219], the IC50 was > 1000 nM.

As for `COCC(c1ccco1)N1C[C@@H](NC(=O)Nc2c(C)c(-c3cnn(C)c3)nn2-c2ccccc2)[C@H](c2ccc(F)c(F)c2)C1` (stereo partly drawn) [Compound I-186], the IC50 lay in the range of 100 to 1000 nM.

As to `Cc1c(-c2cnn(C)c2)nn(-c2ccccc2)c1NC(=O)N[C@@H]1CN(Cc2csc(Cl)n2)C[C@H]1c1ccc(F)c(F)c1` [Compound I-204], the IC50 is < 100 nM.

With `COCC[C@@H]1C[C@@H](NC(=O)Nc2c(C)c(-c3cnc(C)nc3)nn2-c2ccccc2)[C@H](c2ccccc2)C1` [Compound I-263], the IC50 was < 100 nM.

In the case of `Cc1c(-c2cnn(C)c2)nn(-c2ccccc2)c1NC(=O)N[C@@H]1C[C@@H](Oc2ccccn2)C[C@H]1c1ccccc1` (racemic) [Compound I-223], the IC50 was > 1000 nM.

Consider `CCc1ccc(CN2C[C@@H](NC(=O)Nc3c(C)c(-c4cnn(C)c4)nn3-c3ccccc3)[C@H](c3ccc(F)c(F)c3)C2)o1` [Compound I-192], for which the IC50 was in the range of 100 to 1000 nM.

Turning to `COCC=C1C[C@@H](NC(=O)Nc2c(C)c(-c3cnn(C)c3)nn2-c2ccccc2)[C@H](c2ccccc2)C1` [Compound I-261], the IC50 is < 100 nM.

Consider `CCOC(=O)C(COC)[C@@H]1C[C@@H](NC(=O)Nc2c(C)c(-c3cnn(C)c3)nn2-c2ccccc2)[C@H](c2ccccc2)C1` (mixture of isomers) [Compound I-238], for which the IC50 was > 1000 nM.

Consider `Cc1c(-c2cnn(C)c2)nn(-c2ccccc2)c1NC(=O)N[C@@H]1CN(C(C)C)C[C@H]1c1ccc(F)c(F)c1` [Compound I-194], for which the IC50 was > 1000 nM.

Source of the values: patent publication US10532985B2, “Heterocycle and carbocycle derivatives having TRKA inhibitory activity” (Shionogi & Co., Ltd., priority 2014, dated 2020).
